Test results taken from ChEMBL document CHEMBL5316344, “Homologation of the Alkyl Side Chain of Antimitotic Phenyl 4-(2-Oxo-3-alkylimidazolidin-1-yl)benzenesulfonate Prodrugs Selectively Targeting CYP1A1-Expressing Breast Cancers Improves Their Stability in Rodent Liver Microsomes” (J Med Chem, 2023).
Active and inactive are the calls of the source. The rule behind the calls is not given here.

Legend:
MCF7 [1] = test: Antiproliferative activity against human MCF7 cells expressing CYP1A1 assessed as cell growth inhibition incubated for 48 hrs by sulforhodamine B assay; type: functional, cell-based; details: MCF7, 48 h
HT-29 = test: Antiproliferative activity against human HT-29 cells assessed as cell growth inhibition incubated for 48 hrs by sulforhodamine B assay; type: functional, cell-based; details: HT-29, 48 h
M21 = test: Antiproliferative activity against human M21 cells assessed as cell growth inhibition incubated for 48 hrs by sulforhodamine B assay; type: functional, cell-based; details: M21, 48 h
[2] = Selectivity ratio, ratio of IC50 for antiproliferative activity against human HT-29 cells to IC50 for antiproliferative activity against human MCF7 cells expressing CYP1A1; type: functional
[3] = Selectivity ratio, ratio of IC50 for antiproliferative activity against human M21 cells to IC50 for antiproliferative activity against human MCF7 cells expressing CYP1A1; type: functional
[4] = Stability in human liver microsomes assessed as half life incubated for 60 mins by HPLC analysis; type: ADME, Microsome
[5] = Stability in mouse liver microsomes assessed as half life incubated for 60 mins by HPLC analysis; type: ADME, Microsome
[6] = Stability in rat liver microsomes assessed as half life incubated for 60 mins by HPLC analysis; type: ADME, Microsome
[7] = Stability in human liver microsomes assessed as intrinsic clearance incubated for 60 mins by HPLC analysis; type: ADME, Microsome; details: read-out: CLH
[8] = Stability in mouse liver microsomes assessed as intrinsic clearance incubated for 60 mins by HPLC analysis; type: ADME, Microsome; details: read-out: CLH
[9] = Stability in rat liver microsomes assessed as intrinsic clearance incubated for 60 mins by HPLC analysis; type: ADME, Microsome; details: read-out: CLH
Cytochrome P450 1A1 [10] = molecular target: T1, Cytochrome P450 1A1 (Homo sapiens, UniProt P04798); test: Binding affinity to human CYP1A1 assessed as inhibition of conversion of 7-ethoicyresorufin into fluorescent resorufin by measuring inhibition constant preincubated for 5 mins followed by […] addition measured every minute for 15 mins by EROD assay; type: ADME
T1 sequence (P04798 whole entry): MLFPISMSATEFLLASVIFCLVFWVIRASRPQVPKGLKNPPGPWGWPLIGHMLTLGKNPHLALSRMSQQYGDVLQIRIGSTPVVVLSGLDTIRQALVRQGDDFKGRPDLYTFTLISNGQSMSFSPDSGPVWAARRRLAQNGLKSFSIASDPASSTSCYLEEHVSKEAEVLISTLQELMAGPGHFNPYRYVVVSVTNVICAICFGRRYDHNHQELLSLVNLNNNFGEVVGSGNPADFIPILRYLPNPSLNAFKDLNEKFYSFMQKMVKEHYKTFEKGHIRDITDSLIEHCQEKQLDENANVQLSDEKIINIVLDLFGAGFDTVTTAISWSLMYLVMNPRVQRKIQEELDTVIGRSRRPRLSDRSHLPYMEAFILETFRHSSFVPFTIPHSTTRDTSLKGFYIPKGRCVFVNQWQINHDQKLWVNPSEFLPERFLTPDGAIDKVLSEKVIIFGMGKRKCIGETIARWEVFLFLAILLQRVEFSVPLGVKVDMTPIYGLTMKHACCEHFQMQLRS

HT-1080 [11] = test: Antiproliferative activity against human HT-1080 cells expressing CYP1A1 assessed as cell growth inhibition incubated for 48 hrs by sulforhodamine B assay; type: functional, cell-based; details: HT-1080, 48 h
HT-1080 [12] = test: Antiproliferative activity against human HT-1080 cells transfected with empty vector assessed as cell growth inhibition incubated for 48 hrs by sulforhodamine B assay; type: functional, cell-based; details: HT-1080, 48 h
HT-1080 [13] = test: Antiproliferative activity against human HT-1080 cells assessed as cell growth inhibition incubated for 48 hrs by sulforhodamine B assay; type: functional, cell-based; details: HT-1080, 48 h
[14] = Selectivity ratio, ratio of IC50 for antiproliferative activity against human HT-1080 cells transfected with empty vector to IC50 for antiproliferative activity against human HT-1080 cells expressing CYP1A1; type: functional
[15] = Selectivity ratio, ratio of IC50 for antiproliferative activity against human HT-1080 cells to IC50 for antiproliferative activity against human HT-1080 cells expressing CYP1A1; type: functional
MDA-MB-231 = test: Antiproliferative activity against ER/PR/HER2-negative human MDA-MB-231 cells assessed as cell growth inhibition incubated for 72 hrs by sulforhodamine B assay; type: functional, cell-based; details: MDA-MB-231, 72 h
MDA-MB-468 = test: Antiproliferative activity against ER/PR/HER2-negative human MDA-MB-468 cells assessed as cell growth inhibition incubated for 72 hrs by sulforhodamine B assay; type: functional, cell-based; details: MDA-MB-468, 72 h
T47D = test: Antiproliferative activity against ER/PR-positive HER2-negative human T47D cells assessed as cell growth inhibition incubated for 72 hrs by sulforhodamine B assay; type: functional, cell-based
SK-BR-3 = test: Antiproliferative activity against ER/PR-negative HER2-positive human SK-BR-3 cells assessed as cell growth inhibition incubated for 72 hrs by sulforhodamine B assay; type: functional, cell-based; details: SK-BR-3, 72 h
MCF7 [16] = test: Antiproliferative activity against […] human MCF7 cells assessed as cell growth inhibition incubated for 72 hrs by sulforhodamine B assay; type: functional, cell-based; details: MCF7, 72 h
[17] = Selectivity ratio, ratio of IC50 for antiproliferative activity against ER/PR/HER2-negative human MDA-MB-231 cells to IC50 for antiproliferative activity against ER/PR/HER2-negative human MDA-MB-468 cells; type: functional
[18] = Selectivity ratio, ratio of IC50 for antiproliferative activity against ER/PR/HER2-negative human MDA-MB-231 cells to IC50 for antiproliferative activity against ER/PR-positive HER2-negative human T47D cells; type: functional
[19] = Selectivity ratio, ratio of IC50 for antiproliferative activity against ER/PR/HER2-negative human MDA-MB-231 cells to IC50 for antiproliferative activity against ER/PR-negative HER2-positive human SK-BR-3 cells; type: functional
[20] = Selectivity ratio, ratio of IC50 for antiproliferative activity against ER/PR/HER2-negative human MDA-MB-231 cells to IC50 for antiproliferative activity against […] human MCF7 cells; type: functional
MCF7 [21] = test: Induction of cell cycle arrest in human MCF7 cells expressing CYP1A1 assessed as accumulation of cells at G2/M phase at 50 nM incubated for 48 hrs by DAPI staining based flow cytometric analysis (reference value: 16+/-2 %); type: functional
MCF7 [22] = test: Induction of cell cycle arrest in human MCF7 cells expressing CYP1A1 assessed as accumulation of cells at S phase at 50 nM incubated for 48 hrs by DAPI staining based flow cytometric analysis (reference value: 11+/-1 %); type: functional
MCF7 [23] = test: Induction of cell cycle arrest in human MCF7 cells expressing CYP1A1 assessed as accumulation of cells at G0/G1 phase at 50 nM incubated for 48 hrs by DAPI staining based flow cytometric analysis (reference value: 74+/-2 %); type: functional
Tubulin (Homo sapiens) [24] = molecular target: T2, Tubulin (Homo sapiens) (UniProt P68371+Q9H4B7+P0DPH7+P68366+Q13509+Q71U36+P04350+Q3ZCM7+P07437+P68363+Q9BQE3+Q6PEY2+Q13885+Q9BVA1+Q9BUF5); test: Disruption of microtubules in human MCF7 cells expressing CYP1A1 assessed as cytoskeleton disruption at 840 nM measured after 48 hrs by DAPI staining based fluorescence microscopic analysis; type: cell-based
HT-1080 [25] = test: Antitumor activity against human HT-1080 cells xenografted in chick embryo assessed as reduction in tumor wet weight at 1 ug, iv incubated for 17 days by CAM assay; type: functional; parameters: scale not given: the % may be the effect or the level left; details: dose 1 µg, time 17 day
HT-1080 [26] = test: Antitumor activity against human HT-1080 cells transfected with empty vector xenografted in chick embryo assessed as reduction in tumor wet weight at 1 ug, iv incubated for 17 days by CAM assay; type: functional; parameters: scale not given: the % may be the effect or the level left; details: dose 1 µg, time 17 day
HT-1080 [27] = test: Antitumor activity against human HT-1080 cells expressing CYP1A1 xenografted in chick embryo assessed as reduction in tumor wet weight at 1 ug, iv incubated for 17 days by CAM assay; type: functional; parameters: scale not given: the % may be the effect or the level left; details: dose 1 µg, time 17 day
[28] = Toxicity in chick embryo xenografted with human […] cells assessed as mortality at 1 ug, iv incubated for 17 days; type: organism-based, Gallus gallus; details: chicken, in vivo, 408 h, dose 1 µg, time 17 day
[29] = Toxicity in chick embryo xenografted with human […] cells transfected with empty vector assessed as mortality at 1 ug, iv incubated for 17 days; type: organism-based, Gallus gallus; details: chicken, in vivo, 408 h, dose 1 µg, time 17 day
[30] = Toxicity in chick embryo xenografted with human […] cells expressing CYP1A1 assessed as mortality at 1 ug, iv incubated for 17 days; type: organism-based, Gallus gallus; details: chicken, in vivo, 408 h, dose 1 µg, time 17 day
Cytochrome P450 1A1 [31] = molecular target: T1, Cytochrome P450 1A1; test: Prodrug conversion assessed as human CYP1A1-mediated CEU-602 formation incubated for 15 mins in presence of NADPH by HPLC analysis; type: ADME; details: recombinant enzyme, 0.25 h
MCF7 [32] = test: Induction of cell cycle arrest in human MCF7 cells expressing CYP1A1 assessed as accumulation of cells at G2/M phase at 1250 nM incubated for 48 hrs by DAPI staining based flow cytometric analysis (reference value: 16+/-2 %); type: functional
MCF7 [33] = test: Induction of cell cycle arrest in human MCF7 cells expressing CYP1A1 assessed as accumulation of cells at S phase at 1250 nM incubated for 48 hrs by DAPI staining based flow cytometric analysis (reference value: 11+/-1 %); type: functional
MCF7 [34] = test: Induction of cell cycle arrest in human MCF7 cells expressing CYP1A1 assessed as accumulation of cells at G0/G1 phase at 1250 nM incubated for 48 hrs by DAPI staining based flow cytometric analysis (reference value: 74+/-2 %); type: functional
Tubulin (Homo sapiens) [35] = molecular target: T2, Tubulin (Homo sapiens); test: Disruption of microtubules in human MCF7 cells expressing CYP1A1 assessed as cytoskeleton disruption at 1250 nM measured after 48 hrs by DAPI staining based fluorescence microscopic analysis; type: cell-based
Cytochrome P450 1A1 [36] = molecular target: T1, Cytochrome P450 1A1; test: Prodrug conversion assessed as human CYP1A1-mediated CEU-699 formation incubated for 15 mins in presence of NADPH by HPLC analysis; type: ADME; details: recombinant enzyme, 0.25 h

Structure (SMILES)	IC50 (MCF7 [1]) [nM]	IC50 (HT-29) [nM]	IC50 (M21) [nM]	Ratio IC50 [2]	Ratio IC50 [3]	half-life [4] [h]	half-life [5] [h]	half-life [6] [h]	microsomal CLint [7] [µL/min/mg]	microsomal CLint [8] [µL/min/mg]	microsomal CLint [9] [µL/min/mg]	Ki (Cytochrome P450 1A1 [10]) [nM]	IC50 (HT-1080 [11]) [nM]	IC50 (HT-1080 [12]) [nM]	IC50 (HT-1080 [13]) [nM]	Ratio IC50 [14]	Ratio IC50 [15]	IC50 (MDA-MB-231) [nM]	IC50 (MDA-MB-468) [nM]	IC50 (T47D) [nM]	also measured
CCCCCN1CCN(c2ccc(S(=O)(=O)Oc3cc(OC)c(OC)c(OC)c3)cc2)C1=O	200	> 12500	> 12500	>63	>63	0.95	0.315	2.08	24.3	74	11.1	1400	30	5900	4440	197	148	8600	21	1000	IC50 (SK-BR-3): 3.2 nM; IC50 (MCF7 [16]): 38 nM; Ratio IC50 [17]: 410; Ratio IC50 [18]: 8.6; Ratio IC50 [19]: 2700; Ratio IC50 [20]: 230; Activity (MCF7 [21]): 42%; Activity (MCF7 [22]): 14%; Activity (MCF7 [23]): 44%; Activity (Tubulin (Homo sapiens) [24]): Active; Activity (HT-1080 [25]): 82%; Activity (HT-1080 [26]): 93%; Activity (HT-1080 [27]): 62%; Activity [28]: Non-Toxic; Activity [29]: Non-Toxic; Activity [30]: Non-Toxic; Drug metabolism (Cytochrome P450 1A1 [31]): Metabolite_Detected
CCCCCN1CCN(c2ccc(S(=O)(=O)Oc3cc(OC)cc(OC)c3)cc2)C1=O	600	> 12500	> 12500	>21	>21	1.17	0.733	1.78	20	32	13	230	500	8800	6800	18	14	> 12500	210	1100	IC50 (SK-BR-3): 79 nM; IC50 (MCF7 [16]): 43 nM; Ratio IC50 [17]: >60; Ratio IC50 [18]: >11; Ratio IC50 [19]: >160; Ratio IC50 [20]: >290; Activity (MCF7 [32]): 57%; Activity (MCF7 [33]): 11%; Activity (MCF7 [34]): 32%; Activity (Tubulin (Homo sapiens) [35]): Active; Activity (HT-1080 [25]): 86%; Activity (HT-1080 [26]): 87%; Activity (HT-1080 [27]): 71%; Activity [28]: Non-Toxic; Activity [29]: Non-Toxic; Activity [30]: Non-Toxic; Drug metabolism (Cytochrome P450 1A1 [36]): Metabolite_Detected
